Source: patent US10450610B2, “Single nucleotide polymorphisms (SNP) and association with resistance to immune tolerance induction” (University of Tennessee Research Foundation, priority 2008, dated 2019)
Several values for one entry are separate records, joined by “and”; a condition that tells them apart may be missing. Equal values may be shown once.

Assays:
[1] = test system: BALB/c mice and DBA/1 lac J mice; test: Effect of commonly used immunomodulatory drugs on oral tolerance induction (oral OVA or oral bovine CII); assay type: in vivo; conditions: for effect on tolerance induction: oral OVA in BALB/c mice and oral bovine CII in DBA/1 lac J mice; for OT induction to CII: DBA/1 lac J mice, prednisone at 10 mg/day equivalent
Protocol: Further, studies were conducted using oral OVA (1 mg/day×5 days) in BALB/c mice and oral bovine CII (10 μg×8 doses over 14 days) in DBA/1 lac J mice to test the effects of commonly used immunomodulatory drugs on immune induction ([…], hydroxychloroquine 400 mg/day, methotrexate 17.5 mg/week, leflunomide 20 mg/day after 100 mg/day×3 loading doses, sulfasalazine 2.5 gm/day, D-penicillamine 750 mg/day, IM gold, and etanercept 25 mg twice weekly).

[2] = test system: DBA/1 Lac mice; test: Low dose oral collagen II tolerance induction; arthritis after CII/CFA immunization; assay type: in vivo; conditions: 8 times over 2 weeks, FIG. 6
Protocol: Groups of 12 mice were fed oral CII at the doses indicated 8 times over 2 weeks […]. After 4 days rest, the mice were then immunized at the base of the tail with 100 μg CII emulsified with complete Freund's adjuvant. The degree of arthritis was assessed by a blinded observer for 8 weeks.
The percent of mice with grade 3 or 4 arthritis is indicated on the Y-axis. The biphasis response is due to induction of different tolerance mechanisms by low dose vs high dose CII. Low dose CII (10μg) induces regulatory T cells while high dose (500 μg) induces anergy or clonal deletion.

[3] = test system: DBA/1 mice; test: NSAID inhibition of oral tolerance induction to collagen II; arthritic joints scored; assay type: in vivo
Protocol: To determine whether tolerance induction to orally fed bovine CII in DBA/1 mice would be abrogated by orally fed NSAID, 3 groups of 20-22 DBA/1 mice were fed (by gavage) eight doses (Monday, Tuesday, Thursday, and Friday for 2 weeks) of the following: Placebo (saline) in the a.m. and Placebo (0.1 M HAc) in the p.m.; Placebo (saline) in the a.m. and 10 μg native bovine CII in the p.m.; or piroxicam (2.4 μg/gm) in the a.m. and native bovine CII (10 μg) in the p.m. After 1 week, all mice were immunized (intradermally at the base of tail) with 100 μg of bovine CII emulsified in complete Freund's adjuvant. Animals were placed in coded cages and were scored by a blinded observer twice weekly for the number of arthritic joints (joints swollen, red, and/or deformed).

[4] = test system: spleen cells; test: IFNγ production by spleen cells of fed, CII-immunized mice cultured with α1(II) CB peptide mixture (ELISA); assay type: in vivo; conditions: fed with Placebo (alone); FIG. 8
Text: To assess the effect of oral feeding of piroxicam to another group of mice fed Placebo or CII on spleen cell IFNγ production in a manner similar to the experiment in FIG. 7, four groups of mice (4 mice per group) were gavaged 8 days over 2 weeks with the following: Piroxicam a.m.—CII p.m.; Piroxicam a.m.—HAc p.m.; Saline a.m.—CII p.m.; or Saline a.m.—HAc p.m. After 1 week rest, all mice were immunized at the base of the tail with a CII—complete Freund's adjuvant emulsion. After 14 days, mice ere sacrificed, and spleen cells were isolated and set up in culture with PBS or α1(II)CB peptide mixture. After 72 h culture, harvested supernatants ere analyzed for IFNγ levels by ELISA.

[5] = test system: spleen cells; test: COX-2 inhibitor SC′236 and oral tolerance induction; spleen cell IFNγ with α1(II) CB mixture (ELISA); assay type: in vivo, mice; conditions: for oral tolerance induction to CII: DBA/1 mice, assessed by IFNγ production by spleen cells
Protocol: Groups of 8 mice each were gavaged on MTTHF×2 weeks in the a.m. with PBS or SC′236 (5 μg/gm in 100 μl PBS). SC′236 (Searle) is ˜2000× more inhibitory for COX-2 than for COX-1.
Four of the mice given PBS in the a.m. and 4 mice given SC′236 in the a.m. were gavaged in the p.m. with 10 μg bovine type II collagen (CII). The other 4 mice in the a.m. PBS and a.m. SC′236 group were gavaged in the p.m. with 0.1M acetic acid (HAc) the vehicle the CII was dissolved in. After these 8 day feedings, all mice were rested for 1 week and then immunized with 100 μg of CII in complete Freund's adjuvant. After 10 days, all mice were sacrificed, and spleen cells (2×10^6/ml) were isolated and set up in culture with PBS and bovine α1(II) (50 μg/ml) CB mixture. After 4 days culture, the supernatants were harvested and IFNγ levels determined by ELISA (Endogen). Since the PBS+spleen cell culture from all mice produced between 1-12 pg/ml IFNγ, only the α1(II) data are plotted. All groups were compared to Placebo control group by Student's 2 sample t test.

[6] = test system: mesenteric lymph node cells; test: Mesenteric lymph node cell proliferation with α1(II) CB peptide mixture; assay type: in vivo, mice; conditions: mice fed either CII or piroxicam alone; FIG. 12
[7] = test system: PBMC; test: Oral collagen II in RA patients; IFNγ production (stimulation index) by PBMC cultured with α1(II); assay type: in vivo, human; conditions: for non-responders to oral CII: FIG. 13
Protocol: Immunological tolerance, defined as a ≥30% reduction in IFN-γ production by PBMC cultured with α1(II) of type II collagen, was examined in patients. Patients that were taking disease-modifying antirheumatic drugs, anti-TNF agents and/or non steroidal inflammatories were administered misoprostol 100 μg bid to reverse the non steroidal antiinflammatory inhibition of oral tolerance. Patients were randomized to receive “low” or “high” doses of CII. The Low Dose group (n=38) took daily 30 μg/day bovine CII for 10 weeks, then 50 μg/day for 10 weeks and then 70 μg/day for 10 weeks. The High Dose group (n=41) took 90 μg/day for 10 weeks, 110 μg/day for 10 weeks and then 130 μg/day for 10 weeks.
Heparinized blood was obtained at baseline and after each of the 10 week treatment periods. The blood was diluted 1:3 with RPMI 1640 containing penicillin (100 u/ml) and streptomycin (100 μg/ml) within 1-4 hours after collection, wrapped in paper, and placed in a styrofoam box containing a “cold pack” and shipped overnight. The PBMC were isolated from the blood samples and set up in culture with bovine α1(II) 25 μg/ml, PHA 10 μg/ml or with 50 ul PBS. After 6 days in culture, cell free supernatants were collected and stored at −70° for up to 7 months at which time all samples from a given patient were assayed for IFNγ by commercial ELISA (R & D Systems). The results are shown as in FIG. 13.
The IFNγ stimulation index (SI) was calculated as
[formula] The SI for patients receiving each of the low doses (30 μg, 50 μg and 70 μg/day) was compared with their SI at baseline before each of the 10 week treatments and similarly with the high dose CII group (90 μg, 110 μg and 130 μg/day) with their SI at baseline before each of the 10 week treatments.
SNP analysis was performed of 16 responders and 8 non-responders to oral CII to find the frequency of SNPs closely associated on chromosomes next to several cytokines and chemokines known to be important for oral tolerance induction. The 16 patients were those with had ≥50% reduction in IFNγ α1 stimulation index from baseline to either the 30 μg/day, 50 μg/day, 110 μg/day or 130 μg/day dose of CII (“OT Responders”). The 8 patients with increases in IFNγ α1 S.I. at the 30 μg/day, 50 μg/day, 110 μg/day or 130 μg/day doses of oral CII were selected (“OT Non-Responders”).

[8] = individual RA patients, No SNP A-1515737 AA genotype
[9] = individual RA patients, SNP A-1515737 AA genotype

Cc1oncc1C(=O)Nc1ccc(C(F)(F)F)cc1 [leflunomide]
effect on tolerance induction [1]: did not completely suppress tolerance

CCN(CCO)CCCC(C)Nc1ccnc2cc(Cl)ccc12 (centres unmarked) [hydroxychloroquine]
effect on tolerance induction [1]: did not completely suppress tolerance

CC(=O)OC[C@H]1O[C@@H]([S-])[C@H](OC(C)=O)[C@@H](OC(C)=O)[C@@H]1OC(C)=O.CCP(CC)CC.[Au+] [auranofin]
OT induction to CII [1]: did block OT induction to CII

bovine type II collagen [CII]
incidence of arthritis (percent of mice with grade 3 or 4 arthritis) ([2]; 10 μg/day oral CII): most effective in reducing the incidence of arthritis | incidence of arthritis (percent of mice with grade 3 or 4 arthritis) ([2]; 500 μg/day oral CII): also, but less, effective | percent of arthritic joints ([3]; Placebo+CII (10 μg, eight doses) vs Placebo+Placebo fed controls, p<0.03, FIG. 7): less | IFNγ production by spleen cells cultured with α1(II) CB peptide mixture [4]: reduced production of IFNγ | IFNγ production by spleen cells stimulated by α1(II) CB digest ([5]; CII 10 μg fed, vs Placebo control, p<0.025, FIG. 9): significant reduction | proliferation in response to α1(II) CB peptide mixture [6]: did not proliferate | suppression of IFNγ production (dose response) ([7]; 30 μg, 50 μg and 110 μg/day of oral CII): maximal suppression | IFNγ SI ([7]; 70 μg and 90 μg/day doses): did not reduce | IFNγ SI compared to baseline values ([7]; 70 μg/day dose): significantly increased | patients with a 50% reduction in α1(II) stimulated IFNγ production ([7]; 30, 50 and 110 μg/day oral CII): 69% | non-responders to oral CII ([7]; 30-50 μg/day dose): 30% | non-responders to oral CII ([7]; 110-130 μg/day dose): 28% | number of CII OT Non-Responder patients ([7]; AA genotype): 7 | number of CII OT Responder patients ([7]; AA genotype): 1 | number of CII OT Non-Responder patients ([7]; Non-AA genotype): 2 | number of CII OT Responder patients ([7]; Non-AA genotype): 15 | Ratio: After/baseline (IFNγ α1(II) SI) ([7]; group mean, No SNP A-1515737 AA genotype): 0.427 ± 0.217 | α1(II) SI After Oral CII ([7]; group mean, No SNP A-1515737 AA genotype (17 patients)): 175 ± 46 | Ratio: After/baseline (IFNγ α1(II) SI) ([7]; group mean, SNP A-1515737 AA genotype): 3.512 ± 1.347 | α1(II) SI After Oral CII ([7]; group mean, SNP A-1515737 AA genotype (7 patients)): 613 ± 256 | OT Responder [7, 8]: Yes (15×) and No (2×) | Ratio: After/baseline (IFNγ α1(II) SI) [7, 8]: 0.4932 and 1.9178 and 2.9064 and 0.0573 and 0.1034 and 0.4119 and 0.0789 and 0.0694 and 0.0631 and 0 and 0.0018 and 0.0176 and 0.3520 and 0.0423 and 0.2454 and 0.0030 and 0.1008 | α1(II) SI After Oral CII ([7]; individual RA patients, No SNP A-1515737 AA genotype, 30, 50 or 110 μg/day for 10 weeks): 360 and 280 and 590 and 152 and 6 and 276 and 18 (2×) and 503 and 19 and 0 and 3 and 7 and 358 and 93 and 540 and 246 | OT Responder [7, 9]: No (6×) and Yes | Ratio: After/baseline (IFNγ α1(II) SI) [7, 9]: 2.3774 and 5.0500 and 2.9778 and 10.8021 and 0.0040 and 1.3688 and 2.0050 | α1(II) SI After Oral CII ([7]; individual RA patients, SNP A-1515737 AA genotype, 30, 50 or 110 μg/day for 10 weeks): 630 and 404 and 268 and 2020 and 3 and 167 and 800 | oral tolerance to CII (reduced immune response to fed antigen) ([7]; patients taking DMARDs, anti-TNF agents and NSAIDS, low dose misoprostol given): can be induced | IFNγ α1(II) S.I. after oral CII treatment ([7]; patients who carried SNP A-1515737 AA, p=0.230): no significant change | IFNγ α1(II) S.I. after oral CII compared to baseline values ([7]; patients without SNP A-1515737 AA (ROT1 AA) genotype, p<0.001): significant reduction | IFNγ SI ([7]; ten weeks treatment with 30, 50, 110 and 130 μg/day oral CII, vs baseline): marked suppression

etanercept
effect on tolerance induction [1]: did not completely suppress tolerance

NS(=O)(=O)c1ccc(-n2nc(C(F)(F)F)cc2-c2ccc(Cl)cc2)cc1 [SC′236]
oral tolerance induction to CII ([5]; listed as SC236): blocked oral tolerance induction | oral tolerance induction to CII ([5]; listed as SC'236): abrogates oral tolerance induction | IFNγ production by spleen cells stimulated by α1(II) CB digest ([5]; SC′236 5 μg/gm fed alone, FIG. 9): lower IFNγ production | IFNγ production by spleen cells cultured with α1(II) CB digest ([5]; SC′236 + CII fed, p<0.01, FIG. 9): significant increase

O=C(O)c1cc(/N=N/c2ccc(S(=O)(=O)Nc3ccccn3)cc2)ccc1O [sulfasalazine]
effect on tolerance induction [1]: did not completely suppress tolerance

CN(Cc1cnc2nc(N)nc(N)c2n1)c1ccc(C(=O)N[C@@H](CCC(=O)O)C(=O)O)cc1 [methotrexate]
effect on tolerance induction [1]: did not completely suppress tolerance

C[C@]12C=CC(=O)C=C1CC[C@@H]1[C@@H]2C(=O)C[C@@]2(C)[C@H]1CC[C@]2(O)C(=O)CO [prednisone]
OT induction to CII [1]: did block OT induction to CII | effect on tolerance induction [1]: did not completely suppress tolerance

CC(C)(S)[C@@H](N)C(=O)O [D-penicillamine]
effect on tolerance induction [1]: did not completely suppress tolerance

COc1ccc2cc(CCC(C)=O)ccc2c1 [nabumatone]
oral tolerance (OT) induction ([3]; DBA/1 mice fed CII, FIG. 7 / similar studies (data not shown)): abrogated OT induction
